{"source": "patent US20210015793A1", "about": "“COMPOUNDS FOR TREATING CNS- AND NEURODEGENERATIVE DISEASES” (ETH ZURICH, priority 2018, published 2021)", "experiment": "Serum concentration by HPLC in healthy human research participants (phase-1 study)", "type": "in vivo", "details": "for concentration at 24 h: both sexes, human, serum, oral, 60 mg/day", "experimental": "Dog serum concentrations of Compound-1, Compound-1F and Compound-4 were determined with serum isolated from the blood of German shepherd dogs (age: 8-9 months) taken at different time points (2 h, 4 h, 6 h, 8, 10 h, 24 h) after oral drug intake. The steady-state serum concentrations of Compound-1, Compound-1F and Compound-4 were determined in mice with blood isolated at the end of the study by cardiac puncture. Serum proteins were removed by acetonitrile precipitation, and compounds were extracted by chloroform before separation on an HPLC-C18 column (Poroshell 120 EC-C18, Agilent) with an HPLC system (Agilent 1100 Series) and detection at OD 280 nm, for Compound-1 and Compound-1F. Detection of Compound-4 was performed at OD 310 nm. The same extraction method was also used to determine Compound-1F in the serum of healthy human research participants. Dog hematology and biochemical parameters were determined by the Center of Applied Analytical and Veterinary Studies, Cairo, Egypt. ECG and blood pressure were measured by Dr. Mohamed Elsaed, Electrocardiography Unit, Faculty of Veterinary Medicine, Cairo University. The study was approved by the ethical committee of the Center of Applied and Veterinary Studies, Cairo, Egypt. Clinical laboratory parameters of human research participants were determined by the Rabaa El Adaweya Medical Central Hospital, Cairo, Egypt.\nStudy design: The study was a three-part phase-1, randomized, placebo-controlled study of Compound-1F. The primary end-point was safety and tolerability. Secondary objectives were plasma pharmacokinetics data (part-1, part-2, part-3) and peripheral blood mononuclear cell MPP1 status (part-3).\nThe first part (part-1) was a single ascending dose-effect study with three cohorts of 4 healthy research participants each, who received a single dose of 20 mg, 40 mg or 60 mg in subsequent cohorts. Three drug-treated and one placebo-treated subjects were randomized in each cohort (2 males, 2 females; age: 35-65 years). After completion of safety assessment, blood was drawn for analysis of pharmacokinetics data.\nIn the second part (part-2) of the study, the daily dose was increased every two days until the final dose of 60 mg/day was reached, i.e. the daily dose was 20 mg on day-1 and day-2, 40 mg on day-3 and day-4, and 60 mg on day-5 until day-14. Blood was drawn before study begin for analysis of laboratory parameters and on day-14 for analysis of laboratory parameters and determination of pharmacokinetics data, at the indicated time points after administration of the last dose of 60 mg. All study participants (n=10; 7 males, 3 females; Caucasians; age: 37-66 years; 8 participants received drug, and two received placebo) were healthy and had the possibility to withdraw from the study at any time. All study participants wanted to complete the study.\nIn the third part (part-3) of the study, a cohort of 8 healthy elderly voluntary research participants (7 males, 1 female; age 60-73 years; all Caucasians) received a daily oral dose of 60 mg of Compound-1F for 28 days (6 participants received drug, 2 placebo). In part-3 of the study, blood was drawn before study begin for analysis of clinical laboratory parameters and MPP1 status, and on day-28 for analysis of laboratory parameters and MPP1 status, and 24 h after the last drug intake for measurement of serum concentration of Compound-1F. […]", "note": "Read-outs that look alike come from different tables or passages of the source.", "data": [{"smiles": "O=C(C1=C(O)C(c2ccc(F)cc2)N(c2ccc3c(c2)OCO3)C1=O)C1CC1", "note": "(centres unmarked) [Compound-1F, 1-(1,3-Benzodioxol-5-yl)-4-(cyclopropanecarbonyl)-2-(4-fluorophenyl)-3-hydroxy-2H-pyrrol-5-one]", "values": [{"measurement": "concentration at 24 h", "setting": "elderly research participants, 28 days once daily 60 mg, read-out: steady-state serum concentration at 24 h after the last drug intake", "result": "1540 ± 310", "unit": "ng/mL"}, {"measurement": "concentration at 24 h", "setting": "healthy humans, repeated dosing 60 mg/day, read-out: serum concentration at 24 h after intake of the last dose", "result": "1470 ± 330", "unit": "ng/mL"}, {"measurement": "dose dependence of serum concentration", "setting": "healthy humans, oral Compound-1F 20, 40, 60 mg", "result": "dose-dependent increase"}, {"measurement": "peak serum concentration at t=6 h", "setting": "healthy humans, repeated dosing 60 mg/day, n=8", "result": "5.33 ± 0.76", "unit": "µg/mL"}, {"measurement": "time of peak serum concentration after drug intake", "setting": "healthy humans, repeated dosing with 60 mg/day", "result": 6, "unit": "h"}]}]}
